Patent publication US12569536B2, “Macrocyclic peptides for targeted inhibition of autophagy” (Board of Regents, The University of Texas System, priority 2019, dated 2026)
“Also recorded” adds a separate entry of the source. Numbered stars: 1 amine (or outer) side, 2 acyl side, 3 side chain; on linkers, the order of the positions; unused ones are H or OH. Bridge positions count the residues as written; N and C are the ends. Square brackets hold non-standard residues; d marks the D form. Ends that are not written are not given here. Peptide text beside a SMILES is read from it. Glutaryl = O=C(CCCC(=O)[*:2])[*:1]; NMeA = CN[C@@H](C)C(=O)O

Tests used:
[1] = target: T1, LC3A (Homo sapiens, UniProt Q9H492); assay: Binding of radiolabeled individual peptide fusions to immobilized LC3A; settings: for Binding analysis of clones on immobilized LC3 (FIG. 3E): radiolabeled peptide fusions
T1 construct: made in house
Procedure: A randomized 8-mer peptide library (with a diversity of 3.78×10^10 unique sequences) was designed, and SUPR peptide mRNA display selections incorporating N-methyl alanine and proteinase-K screening were performed against recombinant LC3 (FIGS. 3A-E). For this, milligram quantities of His6-LC3A were bacterially expressed and purified, chemically biotinylated, and immobilized on streptavidin agarose resin for binding selection. Prior to each round of selection, mRNA-fusion libraries were translated using an in vitro rabbit reticulocyte lysate system incorporating amber-codon nonsense suppression with N-methyl alanine. Fusions were cyclized between the side chain of lysine and the N-terminus and briefly exposed to proteinase K to eliminate any sequences particularly susceptible to proteolysis. Binding selections were carried out by incubating mRNA display libraries with the immobilized His6-LC3A followed by elution in SDS and PCR amplification. After seven rounds of binding selection, the number of PCR cycles required to recover the enriched dsDNA after each binding selection had reduced by 40% (FIG. 3C). […] Over 90% of sequences in the library contained an N-methyl alanine residue at a conserved position adjacent to the fixed lysine residue. […] The majority of sequences contained variations of the canonical Autophagy-Interacting Motif observed in natural LC3 adaptor proteins (FIG. 4). […] Binding was confirmed by incubation of radiolabeled individual peptide fusions with immobilized LC3A (FIG. 3E; Table 2).

[2] = tested on: SKOv3-ARHI cells; assay: Western blotting of p62 and LC3I/LC3II in DIRAS3-induced cells; assay type: cell-based; settings: peptide-treated, 72 h
Procedure: (§1) FIGS. 7A-B: SUPR4B in the DIRAS3 autophagy model.
(§2) FIGS. 8A-F: SUPR4B in the DIRAS3 autophagy model. […] Induction was performed using 1 g/mL DOX.

[3] = tested on: OVCAR8-ARHI cells; assay: as above; assay type: cell-based; settings: peptide-treated, 72 h
Procedure: as §1, §2

[4] = tested on: OVCAR8 cells; settings: 50 μM peptide; for cell viability (MTT), DIRAS3-induced (autophagic) cells: OVCAR8, Dox-induced, 72 hours
Procedure: (§3) FIGS. 6A-D: SUPR4B in the DIRAS3 autophagy model. FIGS. 6A&B—MTT viability assays with 50 M linear and cyclic SUPR 4B on non-DIRAS3 induced OVCAR8 (FIG. 6B) and SKOv3 (FIG. 6A) cells. […] Induction was performed using 1 g/mL DOX.
(§4) FIGS. 8A-F: SUPR4B in the DIRAS3 autophagy model. […] Inhibition of autophagy by the present compound were hypothesized to restore cellular growth. […] FIGS. 8A&B—MTT viability assays with 50 M linear and cyclic SUPR on non-DIRAS3 induced OVCAR8 (FIG. 8A) and SKOv3 (FIG. 8B) cells. […] FIGS. 8C&D—MTT viability assays on the effect of 50 M linear and cyclic LC3 SUPR4B on DIRAS3-induced OVCAR8 (FIG. 8C) and SKOv3 (FIG. 8D) cells. Induction was performed using 1 g/mL DOX.
(§5) After selection, the library was sequenced and lead compounds were subjected to thermodynamic and cellular assays to develop a structure-activity relationship modeling the interaction between the SUPR peptide and the target.

[5] = tested on: SKOv3 cells; assay: MTT viability assay in DIRAS3 autophagy model; settings: 50 μM peptide; for cell viability (MTT), DIRAS3-induced (autophagic) cells: SKOv3, Dox-induced, 72 hours
Procedure: as §3, §4, §5

[6] = tested on: OVCAR8 orthotopic ovarian tumors; assay: Orthotopic ovarian tumor model with carboplatin; assay type: in vivo; settings: mice, IP OVCAR8; three times per week for four weeks; SUPR peptide 10 mg/kg or carboplatin 25 mg/kg
Procedure: FIG. 13: SUPR4B1W sensitizes orthotopic ovarian tumors to carboplatin treatment. Mice were injected IP with 2 million OVCAR8 cells and treated three times per week for four weeks with vehicle control, SUPR peptide (10 mg/kg), carboplatin (25 mg/kg), or combination of SUPR peptide and carboplatin. At the end of four weeks, mice were sacrificed and tumors were dissected. […] For each vertical groups of data points, the top group represents Mouse Weight and the bottom group represents Tumor Weight.
In animal model experiments, mice were implanted with a cisplatin-resistant ovarian cancer cell line (OVCAR8) and treated with carboplatin, SUPR4B1W peptide, or carboplatin+SUPR4B1W peptide for 4 weeks. At the conclusion of the study, the mice were sacrificed and the mass of the intraperitoneal tumors measured.

Compound: CSCC[C@@H]1NC(=O)CCCC(=O)NCCCC[C@@H](C(=O)O)NC(=O)[C@H](C)N(C)C(=O)[C@H](C)NC(=O)[C@H]([C@@H](C)O)NC(=O)[C@H](C(C)C)NC(=O)[C@H](CCCNC(=N)N)NC(=O)[C@H](Cc2c[nH]cn2)NC(=O)[C@@H]2CCCN2C(=O)[C@H](Cc2ccccc2)NC1=O [Clone 4B, MFPHRVTAZK] (MFPHRVTA[NMeA]K-OH; linker N-10 via Glutaryl)
- Binding analysis of clones on immobilized LC3 (FIG. 3E) [1]: selective LC3 binding; also recorded: nearly quantitative binding
- LC3I/LC3II ratio [2]: decreased LC3I/LC3II ratio
- p62 protein levels [2]: increase in p62 protein levels
- LC3I/LC3II ratio [3]: decreased LC3I/LC3II ratio
- p62 protein levels [3]: increase in p62 protein levels
- cell viability (MTT), DIRAS3-induced (autophagic) cells [4]: significant rescue of viability
- cell viability (MTT), non-DIRAS3 induced cells ([4]; OVCAR8, no Dox (non-autophagic), up to 72 hours): no statistically significant effect on cell viability
- cell viability (MTT), DIRAS3-induced (autophagic) cells [5]: significant rescue of viability
- cell viability (MTT), non-DIRAS3 induced cells ([5]; SKOv3, no Dox (non-autophagic), up to 72 hours): no statistically significant effect on cell viability

Compound: N.N.O=C([O-])C1(C(=O)[O-])CCC1.[Pt+2] [carboplatin, reference compound]
- final tumor mass, agent administered alone [6]: expected reduction in tumor volume

Compound: CCN(CC)CCCC(C)Nc1ccnc2cc(Cl)ccc12 (stereo not shown) [chloroquine, reference compound]
- cell viability (MTT), DIRAS3-induced (autophagic) cells [4]: did not result in a statistically significant increase in cell viability
- cell viability (MTT), DIRAS3-induced (autophagic) cells [5]: did not result in a statistically significant increase in cell viability

Compound: MFSHRVTLZK (MFSHRVTL[NMeA]K; bridge N-10) [Clone 25C]
- Binding analysis of clones on immobilized LC3 (FIG. 3E) [1]: selective LC3 binding

Compound: MLARSLRDZK (MLARSLRD[NMeA]K; bridge N-10) [Clone 25I]
- % of radiolabeled peptide-fusions bound to immobilized LC3 [1]: 4%

Compound: MLSDIPVNDK [Clone 4E]
- Binding analysis of clones on immobilized LC3 (FIG. 3E) [1]: selective LC3 binding

Compound: MNARSLRDZK (MNARSLRD[NMeA]K; bridge N-10) [Clone 25F]
- Binding analysis of clones on immobilized LC3 (FIG. 3E) [1]: selective LC3 binding

Compound: MSLHRVTVZK (MSLHRVTV[NMeA]K; bridge N-10) [Clone 4C]
- % of radiolabeled peptide-fusions bound to immobilized LC3 [1]: 1%

Compound: MYARSLRDZK (MYARSLRD[NMeA]K; bridge N-10) [Clone 25A]
- Binding analysis of clones on immobilized LC3 (FIG. 3E) [1]: selective LC3 binding

Compound: MYTRRVRLZK (MYTRRVRL[NMeA]K; bridge N-10) [Clone 25E]
- % of radiolabeled peptide-fusions bound to immobilized LC3 [1]: 3%
